Assay results from patent publication US11078495B2, “Methods and compositions for integration defective lentiviral vectors” (The University of North Carolina at Chapel Hill, priority 2015, dated 2021).

System: human embryo fibroblasts (HEFs)
Test: Normalized luciferase expression from IDLV (pTK993) in human embryo fibroblasts treated with Velcade and/or sodium butyrate
Format: cell-based
Settings: sample i: HEFs, Velcade 25 nM for 24 hours at transduction, sodium butyrate 5 mM for 48 hours from day 19; harvested 21 days post transduction; normalized to protein content and VCN
Description: FIG. 7: A short-term treatment of host cells with proteasome inhibitor (velcade) at the time of IDLV transduction results in long-term sensitivity of IDLV expression to HDAC inhibitor (sodium butyrate) treatment. A) Depiction of a conventional self-inactivating HIV-1 vector (pTK993) from which the firefly luciferase is expressed under the control of a CMV promoter. […] B) To characterize the short- and long-term effects of HDAC and proteasome inhibitors on IDLV gene expression, human embryo fibroblasts (HEFs) were transduced with IDLV carrying the firefly luciferase cDNA under the control of a CMV promoter. HEF transduction was carried out either in the absence (samples a, d, g and h) or in the presence of Velcade (25 nM) for 24 hours (samples b, e and i) or sodium butyrate (5 mM) for 48 hours (samples c and f). At day 19 post transduction, sample g was treated with Velcade (25 nM) for 24 hours, while samples h and i were treated with sodium butyrate (5 mM) for 48 hours. Cell samples were harvested at either 48 hours (samples a-c) or 21 days post-transduction and analyzed for luciferase expression, which was normalized to protein content and vector copy number per diploid cell genome (VCN). The readout of normalized luciferase expression is shown above each sample. […]

## CC(C)C[C@H](NC(=O)[C@H](Cc1ccccc1)NC(=O)c1cnccn1)B(O)O [Velcade]
  fold of increase in IDLV expression (normalized luciferase) relative to sample-control: 75 fold
